Measurements taken from PMC2748668 (Pharmacological research : the official journal of the …, 2009).
Like-named read-outs stand apart in the source and are kept apart here.

Experiments:
human OATP1B1 [1] = molecular target: T1, human OATP1B1 (Homo sapiens, UniProt Q9Y6L6); assay: cell-based
T1 sequence (Q9Y6L6 1-691): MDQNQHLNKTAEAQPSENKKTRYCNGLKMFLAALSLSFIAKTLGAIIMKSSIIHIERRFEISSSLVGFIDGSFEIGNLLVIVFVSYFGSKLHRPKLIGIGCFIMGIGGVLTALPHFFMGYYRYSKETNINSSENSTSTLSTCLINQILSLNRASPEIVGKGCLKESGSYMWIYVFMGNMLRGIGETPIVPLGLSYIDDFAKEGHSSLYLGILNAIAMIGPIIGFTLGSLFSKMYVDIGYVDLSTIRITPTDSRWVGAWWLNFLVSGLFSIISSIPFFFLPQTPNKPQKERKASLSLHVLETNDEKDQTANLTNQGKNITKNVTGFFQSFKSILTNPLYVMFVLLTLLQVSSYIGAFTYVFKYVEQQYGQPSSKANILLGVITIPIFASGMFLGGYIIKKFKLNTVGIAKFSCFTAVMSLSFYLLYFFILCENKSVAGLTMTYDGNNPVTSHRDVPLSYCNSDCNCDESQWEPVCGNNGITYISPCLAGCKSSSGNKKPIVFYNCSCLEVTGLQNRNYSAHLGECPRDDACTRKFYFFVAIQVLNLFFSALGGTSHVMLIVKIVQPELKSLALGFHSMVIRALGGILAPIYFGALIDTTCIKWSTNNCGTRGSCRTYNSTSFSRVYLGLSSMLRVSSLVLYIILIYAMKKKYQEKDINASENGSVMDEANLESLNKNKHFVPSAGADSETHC

human OATP1B1 [2] = molecular target: T1, human OATP1B1; assay: Inhibition kinetic studies
human OATP1B1 [3] = molecular target: T1, human OATP1B1
Oatp1a5 = conditions: estrone-3-sulfate as substrate of Oatp1a5; cited from earlier work
OATP1B1 = conditions: estrone-3-sulfate as substrate of OATP1B1; cited from earlier work

Compound | Ki (human OATP1B1 [1]) [µM] | other results
C[C@@]12CCC[C@H]1[C@@H]1CC[C@H]3CCCC[C@]3(C)[C@H]1CC2 | 374 ± 123 | –
C[C@]12CC[C@@H]3c4ccc(O)cc4CC[C@H]3[C@@H]1CC[C@@H]2O[C@@H]1O[C@H](C(=O)O)[C@@H](O)[C@H](O)[C@H]1O | – | Km (human OATP1B1 [2]; Km of the model substrate given in the Ki column (footnote *), mean ± SD): 5.9 ± 1.2 µM
CC(C)(Oc1ccc(CCNC(=O)c2ccc(Cl)cc2)cc1)C(=O)O [Bezafibrate] | 45.2 ± 5.9 | –
C[C@H](CCC(=O)O)[C@H]1CC[C@H]2[C@@H]3[C@H](O)C[C@@H]4C[C@H](O)CC[C@]4(C)[C@H]3CC[C@]12C [Chenodeoxycholic acid] | 3.4 ± 0.5 | –
C[C@H](CCC(=O)O)[C@H]1CC[C@H]2[C@@H]3[C@H](O)C[C@@H]4C[C@H](O)CC[C@]4(C)[C@H]3C[C@H](O)[C@]12C [Cholic acid] | 25 ± 3.3 | –
Clc1ccccc1C(c1ccccc1)(c1ccccc1)n1ccnc1 [Clotrimazole] | 7.6 ± 1.9 | –
C[C@H](CCC(=O)O)[C@H]1CC[C@H]2[C@@H]3C(=O)C[C@@H]4CC(=O)CC[C@]4(C)[C@H]3CC(=O)[C@]12C [Dehydrocholic acid] | 29.7 ± 5.7 | –
C[C@H](CCC(=O)O)[C@H]1CC[C@H]2[C@@H]3CC[C@@H]4C[C@H](O)CC[C@]4(C)[C@H]3C[C@H](O)[C@]12C [Deoxycholic acid] | 3.2 ± 0.5 | –
C[C@]12CC[C@@H]3c4ccc(O)cc4CC[C@H]3[C@@H]1CC[C@@H]2O [Estradiol] | 3.3 ± 0.6 | –
C[C@]12CC[C@@H]3c4ccc(OS(=O)(=O)O)cc4CC[C@H]3[C@@H]1CCC2=O [Estrone-3-sulfate] | – | Ki (human OATP1B1 [3]): 0.2 ± 0.02 µM; Km (Oatp1a5): 268 µM; Km (OATP1B1): 2.4 µM
CC(C)OC(=O)C(C)(C)Oc1ccc(C(=O)c2ccc(Cl)cc2)cc1 [Fenofibrate] | 105 ± 26.7 | –
CN(CCOc1ccc(C[C@H](Nc2ccccc2C(=O)c2ccccc2)C(=O)O)cc1)c1ccccn1 [GW1929] | – | Ki (human OATP1B1 [3]): 0.3 ± 0.05 µM
CC(C)c1onc(-c2c(Cl)cccc2Cl)c1COc1ccc(/C=C/c2cccc(C(=O)O)c2)c(Cl)c1 [GW4064] | – | Ki (human OATP1B1 [3]): 32.4 ± 6.7 µM
C[C@H](CCC(=O)NCC(=O)O)[C@H]1CC[C@H]2[C@@H]3[C@H](O)C[C@@H]4C[C@H](O)CC[C@]4(C)[C@H]3C[C@H](O)[C@]12C [Glycocholic acid] | 22.2 ± 3.9 | –
C[C@H](CCC(=O)O)[C@H]1CC[C@H]2[C@@H]3CC[C@@H]4C[C@H](O)CC[C@]4(C)[C@H]3CC[C@]12C [Lithocholic acid] | 1.2 ± 0.2 | –
CC[C@H](C)C(=O)O[C@H]1C[C@@H](C)C=C2C=C[C@H](C)[C@H](CC[C@@H]3C[C@@H](O)CC(=O)O3)[C@H]21 [Mevinolin] | 12.7 ± 1.9 | –
CC#C[C@]1(O)CC[C@H]2[C@@H]3CCC4=CC(=O)CCC4=C3[C@@H](c3ccc(N(C)C)cc3)C[C@@]21C [Mifepristone] | 2.2 ± 0.3 | –
CC[C@H](C)C(=O)O[C@H]1C[C@H](O)C=C2C=C[C@H](C)[C@H](CC[C@@H](O)C[C@@H](O)CC(=O)O)[C@H]21 [Pravastatin] | 21.8 ± 3.6 | –
C[C@H](CCC(=O)NCCS(=O)(=O)O)[C@H]1CC[C@H]2[C@@H]3[C@H](O)C[C@@H]4C[C@H](O)CC[C@]4(C)[C@H]3C[C@H](O)[C@]12C [Taurocholic acid] | – | Ki (human OATP1B1 [2]): 11.4 ± 3.2 µM
NC(Cc1cc(I)c(Oc2cc(I)c(O)c(I)c2)c(I)c1)C(=O)O (centres unmarked) [Thyroxine] | 3.5 ± 0.7 | –
Cc1cccc(Nc2cc(Cl)nc(SCC(=O)O)n2)c1C [WY-14643] | 1.6 ± 0.11 | –
